This is an account of results in patent US12414960B2, “Analogues of oleuropein and oleacein and uses thereof” (Attica Sciences Ltd., priority 2020, dated 2025).

Data set [1] has as its system MCF-10A non-tumorigenic mammary epithelial cells. As to the kind of experiment: Cell Glo luminescence cell growth assay, MCF-10A normal cells. The following applies: 10 μM, forty-eight hours post-treatment. It counts as cell-based, human. The source says: The CellTiter-Glo® Luminescent Cell Viability Assay (Promega Corporation; Madison, WI) is a homogeneous method of determining the number of viable cells in culture based on quantitation of the ATP present, an indicator of metabolically active cells. The homogeneous assay procedure involves adding the single reagent (CellTiter-Glo® Reagent) directly to cells cultured in serum-supplemented medium. The homogeneous “add-mix-measure” format results in cell lysis and generation of a luminescent signal proportional to the amount of ATP present. The amount of ATP is directly proportional to the number of cells present in culture.
Cancer cells (3,000 cells/well) were harvested in a 96-well plate. Then, the cancer cells were treated with GS compounds and incubated for 24 hours. The MT Cell Viability Substrate, NanoLuc® Enzyme and cell culture medium was equilibrated to 37° C. The 2× RealTime-Glo™ reagent was prepared by diluting the MT Cell Viability Substrate and NanoLuc® Enzyme in 37° C. cell culture medium to a 2× concentration for each reagent. […] The cells were kept for ˜20 minutes in the cell culture incubator and then luminescence was measured by using a plate-reading luminometer. […]
The effects of exemplary compounds on cancer cell lines and one non-tumorigenic cell line (control) were investigated using a high throughput screening assay. More specifically, the effects of the GS compounds on cell growth was evaluated by the XTT assay for cell lines HepG2, HeLa, MCF7 ER+, MDA-MB-231, and MKN-45, and by the Cell Glo luminescence assay for cell lines MIA PaCa-2, HCT-116, MCF-10A, and PANC-1. […]
The effect of GS27 on normal cell growth was evaluated using the MCF-10A cell line. […]
GS27, NDI-091143 and Nexletol (10 μM) were used to treat normal epithelial cells MCF-10A cells. […] Forty-eight hours post-treatment, the growth of MCF-10A cells was evaluated by CellTiter-Glo® Luminescent Cell Viability Assay, as discussed in Example 29.

Another data set in a line: in vivo. The following applies: female, NOD SCID (NOD.CB17-Prkdc^scid/J), mouse, ip. The source says:
The guidelines of the NCI DTP (National Cancer Institute, Developmental Therapeutics Program, NIH, USA) for acute toxicity testing (DOI: 10.1021/acs.biomac.8b00959) were followed to determine Maximum Tolerated Dose (MTD) of GS27.
For the MTD studies, NOD.CB 17-Prkdc^scid/J mice (also known as NOD SCID mice) were used. All animals for in vivo experiments were kept under specific pathogen-free (SPF) conditions in Type II Long cages, at the experimental unit of our department (Department of Pharmacology, EL42-BIO_Exp03, protocol license 5542/22806-30/11/2015) in a climate-regulated environment (21±1° C.; 50-55% relative humidity) under a 12 h/12 h (lights on at 7:00 AM) light/dark cycle and allowed ad libitum food and water. Female and male mice, 6-8 weeks old, were used in the studies described here. GS27 compound was administered to 15 female mice at two different doses. GS at either 100 or 50 mg/kg was administered in a single dose via i.p. injection in pre-weighed mice. One group of five mice received the carrier and served as controls. […] Mice were also weighed twice weekly for two weeks.

A further data set relates to HepG2 liver cancer tumor. As to the kind of experiment: HepG2 xenograft mouse model. Type of data set: in vivo, nu/nu mice. The following applies: 20 mg/kg i.p. every 5 days, until 20 days post-treatment. The protocol:
The effect of GS27 on liver cancer tumor growth in mice was evaluated in a HepG2 xenograft mouse model. HepG2 is a human liver cancer cell line, obtained from ATCC (cat. No HB-8065). Since hepatocellular carcinoma is often treated with the chemotherapeutic agent doxorubicin and embolization, results were compared to those obtained with doxorubicin.
Xenograft tumors were generated by injecting HepG2 liver cancer cells (2.5×10^6) into the right flank of female nu/nu mice (Charles River Laboratories). All mice developed tumors in 10 days with size of approximately 100 mm3. For each experiment, mice were randomly distributed into equal groups (4 mice per group) that were untreated, or treated by intraperitoneal injections every 5 days with 20 mg/kg GS27 or doxorubicin. Tumor volume (average, SD) was evaluated until 20 days post-treatment.

The subject of another data set is pAKT (S473). As to the kind of experiment: ELISA of pAKT (S473) in PANC-1 cells. Type of data set: cell-based, human. The following applies: rIGF1, 5 μM, 24 hours. The procedure:
ELISA assay was used to evaluate the effect of GS compounds on protein activity levels in PANC-1 cancer cells. PANC-1 cells were serum-starved overnight and then treated with rIGF1 (100 ng/mL) for 24 hours, with or without GS27 (5 μM). The levels of the following proteins were evaluated by ELISA assay: a) p70 S6 (T389) (cat no. 54164C, Cell Signaling); b) pAKT (S473), (cat no. 80895, Cell Signaling); c) pACLY (S455), (cat no. okag1672, Avivasysbio); d) pAMPK (T172) (cat no. 7959C, Cell Signaling) and e) p65/NFKB (S536), (cat no. 7173, Cell Signaling).
PANC-1 is a human pancreatic ductal adenocarcinoma cell line derived from the carcinoma of a person.
The molecular mechanism of action of GS27, a compound that has exerted potent anti-cancer activity in different cancer cell lines including pancreatic cancer cells, was investigated. Oleacein has been implicated to have anti-inflammatory and metabolic effects, thus the potential effects of GS27 in different metabolic and inflammatory pathways were evaluated. Specifically, the protein levels of p70 S6 (T389), pAKT (S473), pACLY (S455), pAMPK (T172) and p65/NFKB (S536) were evaluated by ELISA assay in PANC-1 pancreatic cancer cells treated with 5 μM GS27. GS27 reduced p70 S6 and AKT phosphorylation levels, while it increased AMPK phosphorylation.
A general note: An ELISA detects its analyte on a solid surface through an enzyme-linked reagent.

Each structure is given as a SMILES string.

On to `C/C=C(/C=O)[C@@H](CC=O)CC(=O)SCCc1ccccc1` [GS27, S-phenethyl (3S,4E)-4-formyl-3-(2-oxoethyl)hex-4-enethioate], for which the “effect on MCF-10A normal cell growth” value in data set [1] is recorded as “did not have any effect”. This compound also showed an MTD at 2 weeks in “in vivo” of more than 200 mg/kg. For the same compound, the “dose well tolerated for two weeks” value in “in vivo” (2 weeks) was “up to 100 mg/kg”. Moreover, the “reduction in the tumor size, HepG2 liver cancer” value with HepG2 liver cancer tumor was 80%. Further, the AKT phosphorylation levels entry in the data set with pAKT (S473) is reported as “reduced”.
